In patent publication US20160368919A1, “NOVEL PYRIDINE PYRAZINONES AS BET-FAMILY BROMODOMAIN INHIBITORS” (Pfizer Inc., priority 2015, published 2016):

Assays:
Assay type in all cases: cell-based
OPM-2 cells = test: OPM-2 cell proliferation assay (CellTiter-Glo)
Description: (§1) MM1.S (dexamethasone sensitive) and OPM-2 cells were purchased from ATCC and maintained in RPMI-1640 medium with 10% fetal bovine serum at 37 degrees, 5% CO2. Cells were seeded at 10,000 cells/well in 100 uL medium. The following day compounds or control vehicle (DMSO) were added at indicated concentrations in 10 ul volume. Compound treated OPM-2 cells and MM1.S cell were analyzed for cell density at 72h and 96h, respectively, using CellTiter-Glo® (CTG) reagent (Promega). The CTG assay measures the amount of ATP present, which indicates the number of viable cells in culture.

MM1.S cells = test: MM1.S cell proliferation assay (CellTiter-Glo)
Description: as §1

HCC2429 cells = test: NMC HCC2429 cell proliferation assay (CellTiter-Glo); conditions: HCC2429, CTG at 96h
Description: NMC HCC2429 Cell Proliferation Assay • HCC2429 cells were plated into a 96-well plate (10,000 cells/well). Compounds or control vehicle (DMSO) were added at indicated concentrations. Compound-treated HCC2429 cells were analyzed for cell density at 96h using CellTiter-Glo® (CTG) reagent (Promega).

[1] = test system: MYC, SOX2, involucrin and Keratin 14 expression in HCC2429 cells; test: Biomarker analysis in HCC2429 cells (RT-PCR, Western blot)
Description: HCC2429 cells were plated into a 6-well plate (250,000 cells/well). Cells were treated with compounds or control vehicle (DMSO) at the indicated concentrations for 72 hrs. Cells were collected, washed in PBS, and split for western blot and RNA analysis.

DU-145 cells, AR(−) = test: CRPC cell proliferation assay (CellTiter-Glo), DU-145; conditions: CTG at 96h
Description: (§2) Castrate-Resistant Prostate Cancer (CRPC) Cell Proliferation Assay • Cells were seeded into 96-well plates at 2,000-10,000 cells/well in 100 uL medium. Four AR(+) cell lines (LnCaP, C4-2 (parental), C4-2AR-WT and C4-2AR—F876L) and one AR(−) cell line (DU-145) were studied. Compound treated cells were analyzed for cell density at 96h, using CellTiter-Glo® (CTG) reagent (Promega).

C4-2AR-WT cells, AR(+) = test: CRPC cell proliferation assay (CellTiter-Glo), C4-2AR-WT; conditions: CTG at 96h
Description: as §2

[2] = test system: C4-2AR-F876L cells, AR(+); test: CRPC cell proliferation assay (CellTiter-Glo), C4-2AR-F876L; conditions: CTG at 96h
Description: as §2

[3] = test system: C4-2 (parental) cells, AR(+); test: CRPC cell proliferation assay (CellTiter-Glo), C4-2; conditions: CTG at 96h
Description: as §2

[4] = test system: CRPC cell lines (LnCaP, C4-2, C4-2AR-WT, C4-2AR-F876L, DU-145); test: CRPC cell proliferation assay, summary over the cell lines
Description: Castrate-Resistant Prostate Cancer (CRPC) Cell Proliferation Assay • Cells were seeded into 96-well plates at 2,000-10,000 cells/well in 100 uL medium. Four AR(+) cell lines (LnCaP, C4-2 (parental), C4-2AR-WT and C4-2AR—F876L) and one AR(−) cell line (DU-145) were studied. Compound treated cells were analyzed for cell density at 96h, using CellTiter-Glo® (CTG) reagent (Promega). […] Example 10 and IBET-151 BET had submicromolar IC50 values in the AR(+) cell lines. The inhibitors maintained potency in C4-2 cells engineered to express wild type (WT) AR receptor (C4-2-AR-WT), as well as cells engineered to express the F876L mutation (C4-2-AR-F876L) that confers resistance to androgen receptor (AR) antagonists.

LnCaP cells, AR(+) = test: CRPC cell proliferation assay (CellTiter-Glo), LnCaP; conditions: CTG at 96h
Description: as §2

[5] = HCC2429, Western blot, 72 hrs, concentration-dependent

| Structure (SMILES) | IC50 (OPM-2 cells; OPM-2, CTG at 72h) [nM] | inhibition of proliferation of OPM-2 cells (OPM-2 cells; dose dependent manner, FIG. 1.B) | IC50 (MM1.S cells; MM1.S, CTG at 96h) [nM] | inhibition of proliferation of MM1.S cells (MM1.S cells; dose dependent manner, FIG. 1.A) | IC50 (HCC2429 cells) [nM] | mRNA expression of involucrin ([1]; HCC2429, RT-PCR, 72 hours, 50 nM, 200 nM and 500 nM, dose dependent) | MYC protein level [1, 5] | SOX2 protein level [1, 5] | Max % Inh (DU-145 cells, AR(−)) [%] | Max % Inh (C4-2AR-WT cells, AR(+)) [%] | Max % Inh [2] [%] | Max % Inh [3] [%] | activity on cell proliferation ([4]; short-term assay, compared with the BET inhibitors) | Max % Inh (LnCaP cells, AR(+)) [%] | IC50 (DU-145 cells, AR(−); Homo sapiens) [nM] | IC50 (C4-2AR-WT cells, AR(+)) [nM] | IC50 [2] [nM] | IC50 [3] [nM] | IC50 values in the AR(+) cell lines ([4]; AR(+) cell lines, CTG at 96h) | IC50 (LnCaP cells, AR(+); Homo sapiens) [nM] |
| --- | --- | --- | --- | --- | --- | --- | --- | --- | --- | --- | --- | --- | --- | --- | --- | --- | --- | --- | --- | --- |
| Cc1sc2c(c1C)C(c1ccc(Cl)cc1)=N[C@@H](CC(=O)OC(C)(C)C)c1nnc(C)n1-2 [JQ1(+)] | 9 | inhibited proliferation | 11 | inhibited proliferation | 44 | increased | down-regulated | down-regulated | – | – | – | – | – | – | – | – | – | – | – | – |
| CNC(=O)c1ccc(N2C(=S)N(c3ccc(C#N)c(C(F)(F)F)c3)C(=O)C2(C)C)cc1F [MDV3100, reference compound] | – | – | – | – | – | – | – | – | 23 | 39 | 44 | 33 | weaker activity | 43 | – | – | – | – | – | – |
| COc1cc2c(cc1-c1c(C)noc1C)ncc1[nH]c(=O)n([C@H](C)c3ccccn3)c12 [i-BET151, reference compound] | – | – | – | – | – | – | – | – | 74 | 92 | 90 | 90 | – | 78 | 1130 | 430 | 470 | 490 | submicromolar | 400 |
